Experimental findings from publication PMC7618375, “Structure and Methyl-lysine Binding Selectivity of the HUSH Complex Subunit MPP8” (Journal of molecular biology, 2024) are described below.

Non-standard residues stand in square brackets, D forms with d. Residues, ends and D or L forms follow the SMILES beside them. Lys(Me3) = C[N+](C)(C)CCCC[C@H](N)C(=O)O Bounds are passed on as bounds.

This experiment has as its target T1, MPP8 CD (chromodomain, residues 55–116) (Homo sapiens, UniProt Q99549).
T1 construct: The MPP8 CD (residues 55–116) was cloned with a tobacco etch virus (TEV) protease cleavage site; His6 (N); TEV protease cleavage site (ENLYFQG) (N); made in house; host or cells: E. coli BL21 (DE3)
T1 sequence (Q99549 55-116): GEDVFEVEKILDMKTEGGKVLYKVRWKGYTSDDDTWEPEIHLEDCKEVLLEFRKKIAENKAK
Put plainly: Isothermal titration calorimetry (ITC) of H3K9 and H3K9-like peptides titrated into MPP8 CD. Format: binding. The settings on record: 50 mM HEPES pH 7.4, 0.1 M NaCl, 0.5 mM TCEP, 25 °C, single-site model. Here is the method: H3K9 and H3K9-like peptides, unmethylated or lysine-trimethylated, were chemically synthesized (Bio Basic Inc/NBS Biologicals Ltd). Binding of MPP8 CD to H3K9 and H3K9-like peptides was analyzed in 50 mM HEPES pH 7.4, 0.1 M NaCl, 0.5 mM TCEP at 25 °C (298 K), with an AutoiTC200 calorimeter (MicroCal). The sample cell was loaded with 0.37 ml of 50 μM MPP8 CD and the titrant syringe with 750 μM peptide. 20 serial injections of […] peptide solution were performed at 3 min intervals. The stirring speed was 1,000 rpm and the reference power was maintained at 6.06 µcal s^−1. The net heat absorption or release associated with each injection was calculated by subtracting the heat associated with the injection of peptide solution to buffer. Thermodynamic parameters were extracted from a curve fit to the data to a single-site model with Origin 7.0 (MicroCal).
(ITC needs no label: the signal is the heat of the interaction.)

[1] abbreviates: 50 μM MPP8 CD in cell, 750 μM peptide in syringe.

The Kd is the concentration at which binding is half-saturated. A low value points to higher affinity. Under setting [1], `CSCC[C@H](NC(=O)[C@@H](NC(=O)[C@H](CCCC[N+](C)(C)C)NC(=O)[C@H](CCCNC(=N)N)NC(=O)[C@H](C)NC(=O)[C@H](CCCNC(=N)N)NC(=O)[C@H](Cc1c[nH]cn1)NC(=O)[C@@H](NC(=O)[C@@H](N)CCCCN)C(C)C)[C@@H](C)O)C(=O)N[C@@H](CO)C(=O)N[C@@H](CCCCN)C(=O)N1CCC[C@H]1C(=O)O` [G9a 179-190 K185me3] (H-KVHRAR[Lys(Me3)]TMSKP-OH) gave a Kd of 1.31 µM. This counts as single-digit micromolar.
On to `CC(C)C[C@H](N)C(=O)N[C@@H](C)C(=O)N[C@H](C(=O)N[C@@H](CCCCN)C(=O)N[C@@H](C)C(=O)N[C@@H](C)C(=O)N[C@@H](CCCNC(=N)N)C(=O)N[C@@H](CCCC[N+](C)(C)C)C(=O)N[C@@H](CO)C(=O)N[C@@H](C)C(=O)N1CCC[C@H]1C(=O)N[C@@H](C)C(=O)N[C@H](C(=O)NCC(=O)NCC(=O)N[C@H](C(=O)N[C@@H](CCCCN)C(=O)O)C(C)C)[C@@H](C)O)[C@@H](C)O` [H3.1 20-36 K27me3, reference compound], for which, under setting [1], the Kd is over 50 µM.
On to `CSCC[C@H](NC(=O)[C@@H](NC(=O)[C@H](CCCC[N+](C)(C)C)NC(=O)[C@H](CCCNC(=N)N)NC(=O)[C@H](C)NC(=O)[C@H](CCCCN)NC(=O)[C@H](Cc1ccccc1)NC(=O)[C@@H](NC(=O)[C@@H](N)CCCCN)C(C)C)[C@@H](C)O)C(=O)N[C@@H](CCCNC(=N)N)C(=O)N[C@H](C(=O)N[C@@H](CO)C(=O)O)C(C)C` [ATF7IP 10-21 K16me3] (H-KVFKAR[Lys(Me3)]TMRVS-OH), for which the affinity under setting [1], expressed as Kd, was 0.193 ± 0.031 µM.
Same read-out and setting: to `CSCC[C@H](NC(=O)[C@@H](NC(=O)[C@H](CCCC[N+](C)(C)C)NC(=O)[C@H](CCCNC(=N)N)NC(=O)[C@H](C)NC(=O)[C@H](CCCNC(=N)N)NC(=O)[C@H](Cc1c[nH]cn1)NC(=O)[C@@H](NC(=O)[C@@H](N)CCCCN)C(C)C)[C@@H](C)O)C(=O)N1CCC[C@H]1C(=O)N[C@@H](CCCCN)C(=O)N[C@@H](CO)C(=O)N[C@H](C(=O)O)C(C)C` [GLP 199-211 K205me3] (H-KVHRAR[Lys(Me3)]TMPKSV-OH) belongs 0.337 ± 0.064 µM.
Regarding `CC[C@H](C)[C@H](NC(=O)CNC(=O)[C@H](Cc1c[nH]cn1)NC(=O)[C@@H](NC(=O)[C@@H](N)CO)[C@@H](C)O)C(=O)N[C@@H](C)C(=O)N[C@H](C(=O)N[C@@H](CCCC[N+](C)(C)C)C(=O)N[C@@H](CO)C(=O)N[C@H](C(=O)N[C@@H](CC(N)=O)C(=O)N[C@@H](CCSC)C(=O)N[C@@H](C)C(=O)N[C@@H](CO)C(=O)O)[C@@H](C)O)[C@@H](C)CC` [SETDB1 1171-1184 K1178me3] (H-STHGIAI[Lys(Me3)]STNMAS-OH; N-terminus and C-terminus assumed), the Kd runs as follows: under setting [1], over 50 µM; (Figure 4B) over 80 µM.
Under setting [1], `CC[C@H](C)[C@H](NC(=O)CNC(=O)[C@H](Cc1c[nH]cn1)NC(=O)[C@@H](NC(=O)[C@H](CO)NC(=O)[C@H](CCCC[N+](C)(C)C)NC(=O)[C@H](CC(C)C)NC(=O)[C@H](C)NC(=O)[C@H](Cc1ccccc1)NC(=O)CNC(=O)[C@@H](N)CCCNC(=N)N)[C@@H](C)O)C(=O)O` [SETDB1 1165-1175 K1170me3] (H-RGFAL[Lys(Me3)]STHGI-OH) registered a Kd of 1.55 µM.
Same read-out and setting: the figure for `C[C@H](NC(=O)[C@H](CCCCN)NC(=O)CNC(=O)CNC(=O)[C@@H](NC(=O)[C@H](CO)NC(=O)[C@H](CCCC[N+](C)(C)C)NC(=O)[C@H](CCCNC(=N)N)NC(=O)[C@H](C)NC(=O)[C@@H](NC(=O)[C@H](CCC(N)=O)NC(=O)[C@@H](N)CCCCN)[C@@H](C)O)[C@@H](C)O)C(=O)O` [H3.1 4-15 K9me3, reference compound] is 0.769 ± 0.065 µM.
